From patent publication US20220364179A1, “METHODS AND COMPOSITIONS FOR ASSESSING AND PREDICTING THERAPEUTIC RESPONSE” (Lankenau Institute for Medical Research, priority 2019, published 2022)

Experiments:
melanoma = melanoma cohort, response to therapy by IDO2 genotype; assay type: in vivo, human
Procedure: In the melanoma cohort, 84 patients were genotyped with 6 patients returning uncertain results. The remaining 78 patients, including 52 males and 26 females, were treated and analyzed in a similar way to the PDAC patients of Example 3 above. The results of the 46 patients, including 31 males and 15 females, in this cohort that responded positively to IDO and/or other indicated therapies were also analyzed.

[1] = test system: metastatic adenocarcinoma of the pancreas; assay: Phase I/II trial NCT02077881: indoximod with gemcitabine plus nab-paclitaxel, responses by IDO2 genotype; assay type: in vivo, human; details: for PR + CR (positive response), row % / PR + CR, number of patients: + gemcitabine plus nab-paclitaxel
Procedure: The treatment protocol was as described in ClinicalTrials.gov Identifier NCT02077881, which was a Phase I/II trial designed to evaluate the combination of the immunotherapeutic agent indoximod (an IDO inhibitor) and the standard of care chemotherapy gemcitabine plus nab-paclitaxel in subjects with metastatic adenocarcinoma of the pancreas. Participants received oral indoximod (600 mg, […], or 1200 mg according to their assigned dose cohort) twice daily for 28 days concurrently with IV Nab-paclitaxel 125 mg/m^2 given intravenously over 30-40 minutes for 3 weeks (days 1, 8 and 15) with 1 week rest, followed by gemcitabine 1000 mg/m^2 given intravenously over 30 minutes for 3 weeks (days 1, 8 and 15) with 1 week rest. All subjects will receive the standard 28-day gemcitabine plus nab-paclitaxel regimen. Twice daily oral indoximod was administered concurrently in continuous 28 day cycles. Patients continued until they experienced disease progression or significant toxicity.
Genotyping to detect the wild-type IDO2 alleles or a polymorphisms in one or both alleles was performed using a protocol as provided in Example 2.
Two-sample tests of independent proportions were performed to compare the percentage of positive responders between two groups. Observed versus expected genotype distributions were compared using one-sample tests of proportions. The significance level was set to 0.05 and all tests were one-sided except for the tests comparing response by sex and the tests comparing observed and expected genotypes. Analyses were performed in Stata/MP 15.1 (StataCorp LP., Texas, USA). See the data in FIG. 6A -6D.

rheumatoid arthritis = details: mouse model of rheumatoid arthritis; Merlo et al. 2014; cited from earlier work
mouse tumor models = details: cited from earlier work
brain metastases = assay: whole brain radiotherapy with low-dose chloroquine in patients with brain metastases; assay type: in vivo, human; details: low-dose chloroquine in continuous cycles one week before and during standard of care irradiation; N=20; P=0.07
[2] = Females, all genotypes, no exclusions, Total 40
[3] = Females, excludes (+/p or p/p) uncertain genotype, Total 32
[4] = Males, all genotypes, no exclusions, Total 67
[5] = Males, excludes (+/p or p/p) uncertain genotype, Total 47
[6] = genotype +/+ or +/p, both sexes, Total 56
[7] = genotype +/+ or +/p, females only, Total 22
[8] = genotype +/+ or +/p, males only, Total 34
[9] = genotype +/+, both sexes, excludes uncertain genotype, Total 15
[10] = genotype +/+, females only, excludes uncertain genotype, Total 7
[11] = genotype +/+, males only, excludes uncertain genotype, Total 8
[12] = genotype +/p, both sexes, excludes uncertain genotype, Total 41
[13] = genotype +/p, females only, excludes uncertain genotype, Total 15
[14] = genotype +/p, males only, excludes uncertain genotype, Total 26
[15] = genotype p/p, both sexes, excludes uncertain genotype, Total 23
[16] = genotype p/p, females only, excludes uncertain genotype, Total 10
[17] = genotype p/p, males only, excludes uncertain genotype, Total 13

Cn1cc(C[C@H](N)C(=O)O)c2ccccc21 [indoximod, 1-methyl-tryptophan]
more frequent response than the expected population (melanoma; female cohort, patients with the +/+ or +/p alleles): 41%
less frequent response than the expected population (melanoma; female patients without the active allele (p/p)): 70%
overall survival (melanoma; inactive IDO2 genetic configuration, adjuvant radiotherapy including treatment with indoximod): extended overall survival
PR + CR (positive response), row % [1, 2]: 60.0%
PR + CR, number of patients [1, 2]: 24
PR + CR (positive response), row % [1, 3]: 62.5%
PR + CR, number of patients [1, 3]: 20
PR + CR (positive response), row % [1, 4]: 43.3%
PR + CR, number of patients [1, 4]: 29
PR + CR (positive response), row % [1, 5]: 51.1%
PR + CR, number of patients [1, 5]: 24
PR + CR, number of patients ([1]; both sexes, excludes (+/p or p/p) uncertain genotype, Total 79): 44
PR + CR (positive response), row % ([1]; both sexes, includes uncertain genotype, Total 51): 35.3%
PR + CR, number of patients ([1]; genotype (+/p or p/p) or p/p, both sexes, includes uncertain genotype, Total 51): 18
PR + CR, number of patients ([1]; genotype (+/p or p/p) or p/p, males only, includes uncertain genotype, Total 33): 9
PR + CR (positive response), row % [1, 6]: 62.5%
PR + CR, number of patients [1, 6]: 35
PR + CR (positive response), row % [1, 7]: 68.2%
PR + CR, number of patients [1, 7]: 15
PR + CR (positive response), row % [1, 8]: 58.8%
PR + CR, number of patients [1, 8]: 20
PR + CR (positive response), row % [1, 9]: 53.3%
PR + CR, number of patients [1, 9]: 8
PR + CR (positive response), row % [1, 10]: 42.9%
PR + CR, number of patients [1, 10]: 3
PR + CR (positive response), row % [1, 11]: 62.5%
PR + CR, number of patients [1, 11]: 5
PR + CR (positive response), row % [1, 12]: 65.9%
PR + CR, number of patients [1, 12]: 27
PR + CR (positive response), row % [1, 13]: 80.0%
PR + CR, number of patients [1, 13]: 12
PR + CR (positive response), row % [1, 14]: 57.7%
PR + CR, number of patients [1, 14]: 15
PR + CR (positive response), row % [1, 15]: 39.1%
PR + CR, number of patients [1, 15]: 9
PR + CR (positive response), row % [1, 16]: 50.0%
PR + CR, number of patients [1, 16]: 5
PR + CR (positive response), row % [1, 17]: 30.8%
PR + CR, number of patients [1, 17]: 4
PR + CR (positive response), row % ([1]; males only, includes uncertain genotype, Total 33): 27.3%
PR + CR, number of patients ([1]; whole cohort, both sexes, no exclusions, Total 107): 53
therapeutic responses, outcomes stratified to IDO2 genotype ([1]; in combination with gemcitabine in PDAC patients, patients harboring functional IDO2 alleles, initial cohort): trend in improved therapeutic responses
therapeutic responses after deletion of the IDO2 gene (rheumatoid arthritis): ablate therapeutic responses

Cn1cc(CC(N)C(=O)O)c2ccccc21 [D, L-1MT]
effect on efficacy of radiotherapy (mouse tumor models): improve the efficacy of radiotherapy

CCN(CC)CCCC(C)Nc1ccnc2cc(Cl)ccc12 (stereo not drawn) [chloroquine]
survival outcomes (brain metastases): trend in improvement of survival outcomes
